Data: patent publication US20180311247A1, “COMBINATION THERAPIES FOR TREATING CANCERS” (GILEAD SCIENCES, INC., priority 2015, published 2018)
Read-outs that look alike come from different tables or passages of the source.

Tests used:
[1] = system: human activated B cell (ABC) subtype DLBCL cell line, TMD8; test: TMD8 cell viability (CellTiter Glo) growth inhibition assay; type: cell-based; conditions: TMD8 cells; for cell growth inhibition over the dose range: four days, Compound D 0-90 nM, Compound A1 0-22 nM; for IC50: Homo sapiens, TMD8, 96 h, 96 hours, read-out: average IC50 (concentration that causes half maximal inhibition of cell growth)
Description: Material and Methods: The effect of the combination of a BET inhibitor, (2-cyclopropyl-6-(3,5-dimethylisoxazol-4-yl)-1H-benzo[d]imidazol-4-yl)di(pyridin-2-yl)methanol (Compound D), and BTK inhibitor (Compound A1) on growth inhibition of the human activated B cell (ABC) subtype DLBCL cell line, TMD8, was evaluated in vitro. TMD8 cells were dosed with a matrix of Compound D (0-90 nM) and compound A1 (0-22 nM) and treated for four days, after which cell viability was measured by a CellTiter Glo assay. A representative heatmap of this dose matrix for cell growth inhibition is shown in FIG. 2 (0% to 100% growth inhibition). […] Synergy was defined as the excess over the predicted additive interaction between the compounds using Bliss analysis.
Cells were plated at a density of 4,000 cells per well in 384-well (Grenier 781086) tissue culture black well plates already spotted with compounds by a Labcyte Echo liquid handler. […] The predicted response under Bliss additivity for any combination of drugs at a given concentration pair was determined by Ra+Rb−Ra*Rb, where Ra and Rb are the responses of Compounds D and A1 (i.e., cell growth inhibition). The total Bliss score was determined by summing the differences between the observed values and the predicted additive value at each pair of concentrations assayed. Only values where the difference is greater than the 95% confidence interval of the measurements are included in the sum.

[2] = system: type II collagen arthritis in female Lewis rats; test: rat collagen-induced arthritis model (established type II collagen arthritis); type: in vivo; conditions: for summed ankle histopathology (mean ± standard error), maximum value of 25: day 34
Description: This study evaluated the potential effects of BTK inhibitor in combination with JAK inhibitor in treating arthritis. Lewis rats were injected intradermally/subcutaneously (ID/SC) with porcine type II collagen to induce arthritis. Arthritic rats were treated with vehicle (20% Cremophor EL/10% EtOH/70% saline), Compound A1 (a BTK inhibitor), Compound B4 (a JAK inhibitor), Compound A1 and Compound B4, or Dex (dexamethasone). Compound A1 was administered orally either twice daily at 3, 10, or 20 mg/kg or once daily at 20 mg/kg; Compound B4 was administered orally daily at 2.5 mg/kg; dex was administered daily at 0.075 mg/kg, initiated on day 17. The study was terminated at day 34. Efficacy evaluation was based on body weights, daily ankle caliper measurements, ankle diameter expressed as area under the curve (AUC), terminal hind paw weights, and histopathologic evaluation of right ankles.
This model may reflect certain clinical and histopathologic parameters, such as inflammation, cartilage destruction, and bone resorption that occur in established type II collagen arthritis in female Lewis rats.
Ankle diameters were measured and compared for potential treatment effects. FIG. 1 depicts the measurements taken on Day 9, 13-34 for ankle diameter (in.) (mean±standard error) for the following groups: control (normal and disease), Compound A1 (20 mg/kg, daily), Compound A1 (3 mg/kg, twice daily), Compound B4 (2.5 mg/kg, twice daily), Compound A1 (20 mg/kg, daily) with Compound B4 (2.5 mg/kg, twice daily), Compound A1 (3 mg/kg, twice daily) with Compound B4 (2.5 mg/kg, twice daily) and Dex (0.075 mg/kg daily). In addition, the AUC total sum (day 17-34) (mean f standard error) was measured.
The following score systems were used to evaluate ankle inflammation, ankle pannus, ankle cartilage damage, ankle bone resorption, and periosteal new bone formation, which may represent treatment effects to ankle histology. The sum of the summed ankle histology scores for day 34, are provided herein.
Ankle inflammation scores as used herein have the following meaning: 0=normal; 0.5=minimal focus inflammation; 1=minimal infiltration of inflammatory cells in synovium/periarticular tissue; 2=mild infiltration; 3-moderate infiltration with moderate edema; 4=marked infiltration with marked edema; 5=severe infiltration with severe edema. Ankle pannus scores as used herein have the following meaning: 0=normal; 0.5=minimal infiltration of pannus in cartilage and subchondral bone, affects only marginal zones and affects only a few joints; 1=minimal infiltration of pannus in cartilage and subchondral bone, primarily affects marginal zones; 2=mild infiltration (<25% of tibia or tarsals at marginal zones); 3=moderate infiltration (26%-50% of tibia or small tarsals affected at marginal zones); 4=marked infiltration (51%-75% of tibia or tarsals affected at marginal zones); 5=severe infiltration (>75% of tibia or tarsals affected at marginal zones, severe distortion of overall architecture).

[3] = Compound A1 3 mg/kg, twice daily, orally
[4] = Compound A1 10 mg/kg, twice daily, orally
[5] = Compound A1 20 mg/kg, daily, orally
[6] = Compound A1 20 mg/kg, twice daily, orally
[7] = Compound B4 2.5 mg/kg, twice daily, orally

Compound: CC#CC(=O)N1CC[C@@H](n2c(=O)n(-c3ccc(Oc4ccccc4)cc3)c3c(N)ncnc32)C1 [Compound A1, (R)-6-amino-9-(1-(but-2-ynoyl)pyrrolidin-3-yl)-7-(4-phenoxyphenyl)-7H-purin-8(9H)-one]
- cell growth inhibition over the dose range [1]: reduced cell growth
- ED-1 immunopositive osteoclast count (mean ± standard error) [2, 3]: 7±1.3
- ankle diameter AUC total sum (day 17-34) (mean ± standard error) [2, 3]: 5.9±0.079
- percent inhibition of the AUC total sum (day 17-34) [2, 3]: 13%
- percent inhibition of the ED-1 immunopositive osteoclast count [2, 3]: 65%
- percent inhibition of the summed ankle histopathology [2, 3]: 10%
- ED-1 immunopositive osteoclast count (mean ± standard error) [2, 4]: 8±1.9
- ankle diameter AUC total sum (day 17-34) (mean ± standard error) [2, 4]: 5.9±0.102
- percent inhibition of the AUC total sum (day 17-34) [2, 4]: 9%
- percent inhibition of the ED-1 immunopositive osteoclast count [2, 4]: 62%
- percent inhibition of the summed ankle histopathology [2, 4]: 16%
- ED-1 immunopositive osteoclast count (mean ± standard error) [2, 5]: 9±1.5
- ankle diameter AUC total sum (day 17-34) (mean ± standard error) [2, 5]: 5.9±0.096
- percent inhibition of the AUC total sum (day 17-34) [2, 5]: 13%
- percent inhibition of the ED-1 immunopositive osteoclast count [2, 5]: 56%
- percent inhibition of the summed ankle histopathology [2, 5]: 15%
- ED-1 immunopositive osteoclast count (mean ± standard error) [2, 6]: 4±0.7
- ankle diameter AUC total sum (day 17-34) (mean ± standard error) [2, 6]: 5.8±0.124
- percent inhibition of the AUC total sum (day 17-34) [2, 6]: 15%
- percent inhibition of the ED-1 immunopositive osteoclast count [2, 6]: 83%
- percent inhibition of the summed ankle histopathology [2, 6]: 18%
- summed ankle histopathology (mean ± standard error), maximum value of 25 [2, 3]: 23±0.6
- summed ankle histopathology (mean ± standard error), maximum value of 25 [2, 4]: 21±1.4
- summed ankle histopathology (mean ± standard error), maximum value of 25 [2, 5]: 21±0.7
- summed ankle histopathology (mean ± standard error), maximum value of 25 [2, 6]: 21±0.6

Compound: C[C@@H]1C[C@H]2[C@@H]3CCC4=CC(=O)C=C[C@]4(C)[C@@]3(F)[C@@H](O)C[C@]2(C)[C@@]1(O)C(=O)CO [Dex, dexamethasone, reference compound]
- ED-1 immunopositive osteoclast count (mean ± standard error) ([2]; Dex 0.075 mg/kg): 4±1.4
- percent inhibition of the AUC total sum (day 17-34) ([2]; Dex 0.075 mg/kg): 56%
- percent inhibition of the ED-1 immunopositive osteoclast count ([2]; Dex 0.075 mg/kg): 85%
- percent inhibition of the summed ankle histopathology ([2]; Dex 0.075 mg/kg): 51%
- ankle diameter AUC total sum (day 17-34) (mean ± standard error) ([2]; Dex 0.075 mg/kg daily): 5.2±0.069
- summed ankle histopathology (mean ± standard error), maximum value of 25 ([2]; Dex 0.075 mg/kg daily): 12±1.0

Compound: Cc1noc(C)c1-c1cc(C(O)(c2ccccn2)c2ccccn2)c2nc(C3CC3)[nH]c2c1 [Compound D, (2-cyclopropyl-6-(3,5-dimethylisoxazol-4-yl)-1H-benzo[d]imidazol-4-yl)di(pyridin-2-yl)methanol]
- IC50 ([1]; Compound D alone): 25 nM
- IC50 ([1]; in the presence of 5.5 nM of Compound A1): 11 nM
- IC50 ([1]; in the presence of 11 nM of Compound A1): 8 nM
- cell growth inhibition over the dose range [1]: reduced cell growth

Compound: C[C@@H]1CCN(C(=O)CC#N)C[C@@H]1N(C)c1ncnc2[nH]ccc12 [Compound B4, 3-((3R,4R)-4-methyl-3-(methyl(7H-pyrrolo[2,3-d]pyrimidin-4-yl)amino)piperidin-1-yl)-3-oxopropanenitrile, reference compound]
- ED-1 immunopositive osteoclast count (mean ± standard error) [2, 7]: 16±1.7
- ankle diameter AUC total sum (day 17-34) (mean ± standard error) [2, 7]: 5.6±0.083
- percent inhibition of the AUC total sum (day 17-34) [2, 7]: 28%
- percent inhibition of the ED-1 immunopositive osteoclast count [2, 7]: 14%
- percent inhibition of the summed ankle histopathology [2, 7]: 23%
- summed ankle histopathology (mean ± standard error), maximum value of 25 [2, 7]: 19±1.4
